# Measured values taken from ChEMBL document CHEMBL3885861, “Open TG-GATES”.
# Organism: Rattus norvegicus
# Assay: Open TG-GATES - Regimen: Single
# Format: toxicity, organism-based, Sprague-Dawley
# Set-up: regimen Single, gender Male, age 6 weeks
# Conditions: in vivo, po, 0 mg/kg, route gavage, dose level Control; for APTT / Bas / Eos / Fbg / Hb / Ht / Lym / MCH / MCHC / MCV / Mono / Neu / PT / Plat / RBC / Ret / WBC: tissue Blood; for KIDNEY_L / KIDNEY_R / KIDNEY_TOTAL: tissue Kidney; for LIVER: tissue Liver; for A/G / ALP / ALT / AST / BUN / CRE / Ca / Cl / DBIL / GLC / IP / K / LDH / Na / PL / RALB / TBIL / TC / TG / TP / gamma-GTP: tissue Plasma
compound,measurement,setting,value
CCC1(c2ccccc2)C(=O)NC(=O)NC1=O [PHENOBARBITAL],TERMINAL_BW,3 h,221.7 g
same,APTT,3 h,19.3 s
same,Bas,3 h,0.4%
same,Eos,3 h,1%
same,Fbg,3 h,219.2 mg/dL
same,Hb,3 h,13.6 g/dL
same,Ht,3 h,37.5%
same,Lym,3 h,72.8%
same,MCH,3 h,21.7 pg
same,MCHC,3 h,36.1%
same,MCV,3 h,60.2 fL
same,Mono,3 h,3%
same,Neu,3 h,21.6%
same,PT,3 h,11.9 s
same,Plat,3 h,113.7 x10_4/uL
same,RBC,3 h,623.8 x10_4/ul
same,Ret,3 h,7.9%
same,WBC,3 h,110.8 x10_2/uL
same,KIDNEY_L,3 h,1.1 g
same,KIDNEY_R,3 h,1 g
same,KIDNEY_TOTAL,3 h,2.1 g
same,LIVER,3 h,10.2 g
same,A/G,3 h,1.6
same,ALP,3 h,939.8 IU/L
same,ALT,3 h,38.4 IU/L
same,AST,3 h,73.4 IU/L
same,BUN,3 h,10.8 mg/dL
same,CRE,3 h,0.4 mg/dL
same,Ca,3 h,10.6 mg/dL
same,Cl,3 h,103.4 meq/L
same,DBIL,3 h,0.068 mg/dL
same,GLC,3 h,203.2 mg/dL
same,IP,3 h,9.4 mg/dL
same,K,3 h,4.2 meq/L
same,LDH,3 h,162.6 IU/L
same,Na,3 h,141.6 meq/L
same,PL,3 h,140.4 mg/dL
same,RALB,3 h,3.3 g/dL
same,TBIL,3 h,0.1 mg/dL
same,TC,3 h,78 mg/dL
same,TG,3 h,55 mg/dL
same,TP,3 h,5.3 g/dL
same,gamma-GTP,3 h,0.8 IU/L
same,TERMINAL_BW,6 h,218.3 g
same,APTT,6 h,19 s
same,Bas,6 h,0.2%
same,Eos,6 h,1%
same,Fbg,6 h,227.8 mg/dL
same,Hb,6 h,14 g/dL
same,Ht,6 h,39.1%
same,Lym,6 h,73.6%
same,MCH,6 h,21.4 pg
same,MCHC,6 h,35.9%
same,MCV,6 h,59.5 fL
same,Mono,6 h,3.2%
same,Neu,6 h,21.4%
same,PT,6 h,12.2 s
same,Plat,6 h,119.4 x10_4/uL
same,RBC,6 h,656.8 x10_4/ul
same,Ret,6 h,8.1%
same,WBC,6 h,105 x10_2/uL
same,KIDNEY_L,6 h,1 g
same,KIDNEY_R,6 h,1 g
same,KIDNEY_TOTAL,6 h,2 g
same,LIVER,6 h,9.6 g
same,A/G,6 h,1.6
same,ALP,6 h,907.4 IU/L
same,ALT,6 h,34.4 IU/L
same,AST,6 h,70.2 IU/L
same,BUN,6 h,9.8 mg/dL
same,CRE,6 h,0.4 mg/dL
same,Ca,6 h,10.8 mg/dL
same,Cl,6 h,103.8 meq/L
same,DBIL,6 h,0.074 mg/dL
same,GLC,6 h,193.2 mg/dL
same,IP,6 h,9.3 mg/dL
same,K,6 h,4 meq/L
same,LDH,6 h,167.6 IU/L
same,Na,6 h,142 meq/L
same,PL,6 h,135.6 mg/dL
same,RALB,6 h,3.3 g/dL
same,TBIL,6 h,0.1 mg/dL
same,TC,6 h,73.8 mg/dL
same,TG,6 h,65.4 mg/dL
same,TP,6 h,5.4 g/dL
same,gamma-GTP,6 h,1 IU/L
same,TERMINAL_BW,9 h,217.1 g
same,APTT,9 h,19 s
same,Bas,9 h,0.4%
same,Eos,9 h,1.2%
same,Fbg,9 h,223.8 mg/dL
same,Hb,9 h,13.6 g/dL
same,Ht,9 h,37.9%
same,Lym,9 h,77%
same,MCH,9 h,21.5 pg
same,MCHC,9 h,36%
same,MCV,9 h,59.8 fL
same,Mono,9 h,2.8%
same,Neu,9 h,18%
same,PT,9 h,12.3 s
same,Plat,9 h,127.9 x10_4/uL
same,RBC,9 h,634.2 x10_4/ul
same,Ret,9 h,7.7%
same,WBC,9 h,93.6 x10_2/uL
same,KIDNEY_L,9 h,1 g
same,KIDNEY_R,9 h,1 g
same,KIDNEY_TOTAL,9 h,2 g
same,LIVER,9 h,9 g
same,A/G,9 h,1.6
same,ALP,9 h,763.4 IU/L
same,ALT,9 h,31.4 IU/L
same,AST,9 h,63.6 IU/L
same,BUN,9 h,9.4 mg/dL
same,CRE,9 h,0.3 mg/dL
same,Ca,9 h,10.6 mg/dL
same,Cl,9 h,103.8 meq/L
same,DBIL,9 h,0.062 mg/dL
same,GLC,9 h,202 mg/dL
same,IP,9 h,10.4 mg/dL
same,K,9 h,3.9 meq/L
same,LDH,9 h,122.2 IU/L
same,Na,9 h,142.2 meq/L
same,PL,9 h,129.8 mg/dL
same,RALB,9 h,3.4 g/dL
same,TBIL,9 h,0.1 mg/dL
same,TC,9 h,70.6 mg/dL
same,TG,9 h,35.4 mg/dL
same,TP,9 h,5.4 g/dL
same,gamma-GTP,9 h,1.2 IU/L
same,TERMINAL_BW,24 h,234.1 g
same,APTT,24 h,20.3 s
same,Bas,24 h,0.6%
same,Eos,24 h,1%
same,Fbg,24 h,221.2 mg/dL
same,Hb,24 h,13.4 g/dL
same,Ht,24 h,37.5%
same,Lym,24 h,77.6%
same,MCH,24 h,21 pg
same,MCHC,24 h,35.7%
same,MCV,24 h,58.9 fL
same,Mono,24 h,2.4%
same,Neu,24 h,18%
same,PT,24 h,11.7 s
same,Plat,24 h,132.6 x10_4/uL
same,RBC,24 h,637.2 x10_4/ul
same,Ret,24 h,7.4%
same,WBC,24 h,98.6 x10_2/uL
same,KIDNEY_L,24 h,1.1 g
same,KIDNEY_R,24 h,1.1 g
same,KIDNEY_TOTAL,24 h,2.2 g
same,LIVER,24 h,11.3 g
same,A/G,24 h,1.6
same,ALP,24 h,911.2 IU/L
same,ALT,24 h,35.8 IU/L
same,AST,24 h,70 IU/L
same,BUN,24 h,16.2 mg/dL
same,CRE,24 h,0.4 mg/dL
same,Ca,24 h,10.8 mg/dL
same,Cl,24 h,103.2 meq/L
same,DBIL,24 h,0.062 mg/dL
same,GLC,24 h,188.4 mg/dL
same,IP,24 h,7.6 mg/dL
same,K,24 h,4 meq/L
same,LDH,24 h,171.8 IU/L
same,Na,24 h,142 meq/L
same,PL,24 h,143 mg/dL
same,RALB,24 h,3.4 g/dL
same,TBIL,24 h,0.1 mg/dL
same,TC,24 h,72.2 mg/dL
same,TG,24 h,77.4 mg/dL
same,TP,24 h,5.6 g/dL
same,gamma-GTP,24 h,1.4 IU/L
